Results published in patent publication US20090209620A1, “Direct Reversal Of The Suppressive Function Of CD4+Regulatory T Cells Via Toll-Like Receptor 8 Signaling” (priority 2005, published 2009).
“Also recorded” adds a separate entry of the source. In the oligonucleotide strings, read from the 5' end, every base follows the letter of its sugar. An asterisk marks phosphorothioate; unmarked linkages are phosphodiester. Other units and linkages are bracketed, terminal groups are in braces. A string of capitals states the bases alone. d = 2'-deoxy (DNA)

Columns and labels:
[1] = system: Treg102 cells; assay: Proliferation and cytotoxicity of CFSE-labeled Treg cells (FACS); format: cell-based, human; details: 3 days
Protocol: The expression of CD4, CD25 and GITR on Treg cells was determined by FACS analysis after staining with specific antibodies (purchased from R&D Systems and BD Biosciences). To isolate naturally occurring CD4^+ CD25^+ Treg cells, CD4^+ T cells were stained with anti-CD4 and anti-CD25 antibodies conjugated to either PE or FITC. After washing, the cells were sorted by FACSARIA into CD4^+ CD25^+ and CD4^+ CD25^− T cell populations. For experiments with carboxyfluorescein diacetate succinimidyl ester (CFSE)-labeled cells, näive CD4^+ T cells or Treg cells ([…]) were stained with CFSE (4.5 uM) from Molecular Probes at 37° C. for 15 min. After several washes, the labeled cells were cultured in RPMI 1640 containing 10% human AB serum and IL-2 (300 IU/ml). To determine suppression of cell division by Treg cells, unlabeled Treg cells were added to CFSE-labeled näive T cells at an 1:1 ratio in 24-well plates precoated with OKT3 (2 ug/ml) in the presence or absence of CpG-A or Poly-G2 (3 ug/ml). After 3 days in culture, the cells were analyzed by FACS gating on the CFSE-labeled cells.
FIG. 5. […] After 3 days of culture, the proliferative profile was determined by FACS analysis. […]

[2] = system: Treg164 cells; assay: Reversibility of siRNA-transduced Treg164 cells by Poly-G10 (functional proliferation assay); format: cell-based, human
Text: Several siRNA sequences (19 nucleotides) for each gene were selected with use of computer-assisted programs. Oligonucleotides containing a siRNA sequence, 8 nucleotide spacers, and a polyT terminator sequence were annealed and then cloned into the HapI and XhoI sites of GFP-expressing pLentilox3.7 vector using methods well known in the art (See, e.g., D. A. Rubinson et al., Nat. Genet. 33, 401-6 (2003)). siRNA was under the control of a U6 promoter. The following DNA sequences used to construct siRNAs for IRAK4, MyD88, and TLR7, 8 and 9, were effective in silencing their corresponding genes:
5×10^6 293T cells were pre-seeded onto 100-mm dishes and transfected with 12 μg siRNA lentiviral DNA, 12 μg VSV-G plasmid DNA and 12 μg packaging viral CMV delta 8.9 plasmid, using Lipofectamine 2000. After the addition of fresh culture medium 8 h later, the cells were cultured for an additional 2-3 days. Viral supernatants were harvested, passed through a […] filter and concentrated by ultracentrifugation at 20,000 rpm for 2 h. Virus pellets were resuspended in a small volume of medium, and viral titers were determined by infecting 293T cells with serially diluted doses of virus. […] Transduction efficiency was analyzed at 3 or 4 days post-transduction, and the cells were sorted into GFP^+and GFP^−cells with a FACS ARIA sorter. […]

[3] = system: 586mel human tumor cells; assay: Human 586mel tumor model in Rag1-/- mice with adoptive transfer of TIL586 and Treg102 cells; format: in vivo; details: 586mel s.c. day 0; CD8+ TIL586 plus Treg102 cells with oligonucleotide on day 3; n=6 mice per group
Protocol: Human 586mel tumor cells (5×106) in 100 μl of buffered saline were subcutaneously injected into Rag1^−/− mice (lacking T and B cells) or Rag 2 ^−/− γC ^−/− mice (lacking T, B and NK cells) on day 0. Tumor-specific CD8^+ TIL586 cells (2.5×107), which recognize and kill 586mel cells, were injected intravenously on day 3 with or without Treg102 cells (3×106) pretreated with Poly-G10 or Poly-T10. Tumor size was measured with calipers every 2-3 days. Tumor volume was calculated on the basis of two-dimensioned measurements. Tumor growth curves were compared with the Wilcoxon rank-sum test.
The data in FIG. 4A-B confirms that TLR8 serves as a receptor for synthetic guanosine containing oligonucleotides and natural ssRNA40 and ssRNA33 ligands derived from HIV-1 virus, and that its activation in endosomes by synthetic DNA or ssRNA ligands triggers a signaling pathway that can reverse the suppressive function of Treg cells. To study the guanosine containing oligonucleotide induced reversal of Treg cell function in vivo, a human tumor model was established by subcutaneously injecting 586mel human tumor cells into Rag1^−/− (T and B cell deficient) mice. […] Tumor volumes were measured and presented as mean±SD (n=6 mice per group). P value was determined between groups as indicated. […]

G* GGGGACGATCGTCG* G*G*G*G*G [CpG-A]
number of Treg cells (cytotoxicity) ([1]; presence or absence of CpG-A 3 μg/ml): did not change
proliferation of CFSE-labeled Treg cells ([1]; with naive T cells, OKT3, IL-2, CpG-A 3 μg/ml): do not proliferate

Poly-G10: guanosine oligonucleotide with protected phosphorothioate backbone (DNA dG*dG*dG*dG*dG*dG*dG*dG*dG*dG)
reversibility of suppression by Poly-G10 ([2]; IRAK4 siRNA-transduced (GFP+) Treg164 cells): lost the capacity to reverse their suppressive function
reversibility of suppression by Poly-G10 ([2]; MyD88 siRNA-transduced (GFP+) Treg164 cells): lost the capacity to reverse their suppressive function
tumor growth / antitumor immunity [3]: enhances antitumor immunity in vivo; also recorded: tumor growth was not detected during the first 42 days
